Legend:
PI3Kα = PI3Kα (Homo sapiens (Human), UniProt P42336); assay: Biochemical assay of PI3K selectivity (PI3Kα); settings: ratio of IC50 for PI3Kα relative to PI3Kδ
From the text: (§1) Recombinant PI3K heterodimeric complexes consisting of a p110 catalytic subunit and a p85 regulatory subunit were overexpressed using the BAC-TO-BAC® HT baculovirus expression system (GIBCO/BRL), and then purified for use in biochemical assays. The four Class I PI 3-kinases were cloned into baculovirus vectors as follows:
p110α: Similar to the method used for p110δ, described above, a FLAG®-tagged version of p110α (see Volinia et al., Genomics, 24(3):427-77 (1994)) was subcloned in BamH1-HindIII sites of pFastbac HTb (Life Technologies) such that the clone was in frame with the His tag of the vector.
(§2) Biochemical Assay using 20 μM ATP
(§3) Using the method described in Example 2, compounds of the invention were tested for inhibitory activity and potency against PI3Kδ, and for selectivity for PI3Kδ versus other Class I PI3K isozymes. In Table 1, IC50 values (μM) are given for PI3Kδ (“Delta”), and may be calculated for the other isoforms using the ratios of IC50 values discussed below. To illustrate selectivity of the compounds, the ratios of the IC50 values of the compounds for PI3Kα, PI3Kβ, and PI3Kγ relative to PI3Kδ are given, respectively, as “Alpha/Delta Ratio,” “Beta/Delta Ratio,” and “Gamma/Delta Ratio.”
(§4) The initial selectivity assays were performed identically to the selectivity assay protocol in Example 2, except using 100 μL Ecoscint for radiolabel detection.
(§5) Subsequent selectivity assays were done similarly using the same 3× substrate stocks except they contained 0.05 mCi/mL γ[^32P]ATP and 3 mM PIP2. Subsequent selectivity assays also used the same 3× enzyme stocks, except they now contained 3 nM of any given PI3K isoform.
(§6) For all selectivity assays, the test compounds were weighed out and dissolved into 10-50 mM stocks in 100% DMSO (depending on their respective solubilities) and stored at −20° C. Compounds were thawed (to room temperature or 37° C.), diluted to 300 μM in water from which a 3-fold dilution series into water was done. From these dilutions, 20 μL was added into the assay wells alongside water blanks used for the enzyme (positive) control and the no enzyme (background) control. The remainder of the assay was performed essentially according to the selectivity assay protocol in Example 2.

PI3Kβ = PI3Kβ (Homo sapiens (Human), UniProt P42338); assay: Biochemical assay of PI3K selectivity (PI3Kβ); settings: ratio of IC50 for PI3Kβ relative to PI3Kδ
Chain of PI3Kβ (P42338 2-1070): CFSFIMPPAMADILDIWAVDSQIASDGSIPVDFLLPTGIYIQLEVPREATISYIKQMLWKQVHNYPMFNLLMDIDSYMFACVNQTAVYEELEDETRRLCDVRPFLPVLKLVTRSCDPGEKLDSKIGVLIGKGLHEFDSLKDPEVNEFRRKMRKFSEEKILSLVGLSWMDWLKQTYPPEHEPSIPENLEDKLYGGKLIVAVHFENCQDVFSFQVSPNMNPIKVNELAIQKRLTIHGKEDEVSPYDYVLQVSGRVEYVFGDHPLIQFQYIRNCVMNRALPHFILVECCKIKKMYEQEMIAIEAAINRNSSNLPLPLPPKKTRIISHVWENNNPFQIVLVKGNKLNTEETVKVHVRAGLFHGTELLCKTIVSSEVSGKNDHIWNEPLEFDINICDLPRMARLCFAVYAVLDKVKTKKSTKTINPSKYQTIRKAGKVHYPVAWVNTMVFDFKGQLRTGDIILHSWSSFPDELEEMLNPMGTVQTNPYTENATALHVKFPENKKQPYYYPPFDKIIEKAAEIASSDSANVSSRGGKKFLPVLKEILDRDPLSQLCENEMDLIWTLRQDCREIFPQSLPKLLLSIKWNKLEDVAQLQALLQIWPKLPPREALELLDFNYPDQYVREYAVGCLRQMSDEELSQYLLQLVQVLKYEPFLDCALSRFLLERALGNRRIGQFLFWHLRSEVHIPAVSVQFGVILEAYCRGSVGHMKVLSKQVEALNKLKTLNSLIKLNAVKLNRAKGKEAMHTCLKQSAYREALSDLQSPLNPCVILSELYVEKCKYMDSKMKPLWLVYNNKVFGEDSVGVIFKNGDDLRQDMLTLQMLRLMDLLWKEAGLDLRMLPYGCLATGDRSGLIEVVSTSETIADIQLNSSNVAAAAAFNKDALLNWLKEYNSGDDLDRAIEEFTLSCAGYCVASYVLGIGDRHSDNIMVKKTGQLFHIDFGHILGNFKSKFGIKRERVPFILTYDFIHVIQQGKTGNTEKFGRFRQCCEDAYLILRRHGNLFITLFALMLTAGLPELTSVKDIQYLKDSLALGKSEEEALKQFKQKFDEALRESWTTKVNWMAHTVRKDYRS
Chain of PI3Kβ (P27986 whole entry partner): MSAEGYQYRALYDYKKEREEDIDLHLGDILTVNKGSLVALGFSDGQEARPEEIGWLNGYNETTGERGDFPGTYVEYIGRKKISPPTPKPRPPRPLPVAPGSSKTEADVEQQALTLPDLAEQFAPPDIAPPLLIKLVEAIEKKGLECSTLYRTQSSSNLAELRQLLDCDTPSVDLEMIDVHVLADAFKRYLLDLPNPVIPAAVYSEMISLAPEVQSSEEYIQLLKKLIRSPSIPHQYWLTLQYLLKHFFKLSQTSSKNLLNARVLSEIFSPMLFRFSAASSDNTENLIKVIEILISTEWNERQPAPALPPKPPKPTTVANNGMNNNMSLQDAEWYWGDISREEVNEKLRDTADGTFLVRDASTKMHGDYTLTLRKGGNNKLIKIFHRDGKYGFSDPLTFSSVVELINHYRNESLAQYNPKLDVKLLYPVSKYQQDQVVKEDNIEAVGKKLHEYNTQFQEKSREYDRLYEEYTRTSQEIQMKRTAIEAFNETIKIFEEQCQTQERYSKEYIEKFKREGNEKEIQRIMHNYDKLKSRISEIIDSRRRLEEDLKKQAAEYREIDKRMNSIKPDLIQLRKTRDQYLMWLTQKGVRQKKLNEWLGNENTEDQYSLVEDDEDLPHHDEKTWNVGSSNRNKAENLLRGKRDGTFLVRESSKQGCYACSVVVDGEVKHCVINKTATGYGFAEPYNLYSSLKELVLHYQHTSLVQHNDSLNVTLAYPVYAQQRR
From the text: as §1
p110β: A p110β (see Hu et al., Mol. Cell. Biol., 13:7677-88 (1993)) clone was amplified from the human MARATHON® Ready spleen cDNA library (Clontech, Palo Alto Calif.) according to the manufacturer's protocol using the following primers: […]
as §2, §3, §4, §5, §6

Human B Lymphocyte = assay: Human B lymphocyte assay; type: cell-based
Method: Heparinized blood (200 mL) from healthy volunteers is mixed with an equal volume of D-PBS, layered on 10×10 mL FICOLL-PAQUE® (Pharmacia), and centrifuged at 1600 rpm for 30 min at room temperature. Peripheral blood mononuclear cells (PBMC) are collected from the FICOLL®/serum interface, overlayed on 10 mL fetal bovine serum (FBS) and centrifuged at 800 rpm for 10 min to remove platelets. After washing, cells are incubated with DYNAL® Antibody Mix (B cell kit) (Dynal Corp., Lake Success, N.Y.) for 20 min at 4-8° C. Following the removal of unbound antibody, PBL are mixed with anti-mouse IgG coated magnetic beads (Dynal) for 20 min at 4-8° C. with gentle shaking followed by elimination of labeled non-B cells on the magnetic bead separator. This procedure is repeated once more. The B cells are resuspended in RPMI-1640 with 10% FBS, and kept on ice until further use.
To study antibody production, B cells are aliquoted at 50−75×10^3 cells/well into 96-well plate with or without inhibitor, to which IL-2 (100 U/mL) and PANSORBIN® (Calbiochem) Staphylococcus aureus cells (1:90,000) were added. Part of the media is removed after 24-36 hr, and fresh media (with or without inhibitor) and IL-2 is added. Cultures are incubated at 37° C., in the presence of a CO2 incubator for additional 7 days. Samples from each condition (in triplicate) are removed, and analyzed for IgG and IgM, as measured by ELISA. Briefly, IMMULON® 4 96-well plates are coated (50 μL/well) with either 150 ng/mL donkey antihuman IgG (H+L) (Jackson ImmunoResearch, West Grove Pa.), or 2 μg/mL donkey antihuman IgG+IgM (H+L) (Jackson ImmunoResearch) in bicarbonate buffer, and left overnight at 4° C. After washing three times with phosphate buffered saline containing 0.1% TWEEN®-80 (PBST) (350 μL/well), and blocking with 3% goat serum in PEST (100 μL/well) for 1 hr at room temperature, samples (100 μL/well) of B cell spent media diluted in PBST are added. […] Color development is stopped by H2SOa solution, and plates were read on an ELISA plate reader.

human neutrophils (PMN) = assay: Neutrophil (PMN) elastase release (fMLP-induced elastase exocytosis); type: cell-based
Method: Aliquots (8 mL) of heparinized blood from healthy volunteers are layered on 3 mL cushions of 7.3% FICOLL® (Sigma, St. Louis, Mo.) and 15.4% HYPAQUE® (Sigma) and centrifuged at 900 rpm for 30 min at room temperature in a table top centrifuge (Beckman). The neutrophil-rich band just above the FICOLL®-HYPAQUE® cushion is collected and washed with Hanks' balanced salt solution (HESS) containing 0.1% gelatin. Residual erythrocytes are removed by, hypotonic lysis with 0.2% NaCl. The neutrophil preparation is washed twice with HESS containing 0.1% gelatin and used immediately.
In addition to superoxide generation, activated neutrophils also respond by releasing several proteases that are responsible for the destruction of tissues and cartilage during inflammation. As an indication of protease release, the effect of present compound on elastase exocytosis is measured. Elastase exocytosis is quantitated by modification of the procedure described by Ossanna et al. (J. Clin. Invest., 77:1939-51 (1986)), as follows. Purified human neutrophils (0.2×10^6) (treated with either DMSO or a serial dilution of a present compound in DMSO) are stimulated with fMLP in PBS containing 0.01 mg/mL cytochalasin B, 1.0 μM sodium azide (NaN3), 5 μg/mL L-methionine and 1 μM fMLP for 90 min at 37° C. in a 96-well plate. At the end of the incubation period, the plate is centrifuged for 5 min at 1000 rpm, and 90 μL of the supernatant is transferred to 10 μL of 10 mM solution of an elastase substrate peptide, MeO-suc-Ala-Ala-Pro-Val-pNA, wherein MeO-suc=methoxy-succinyl; pNA=p-nitroanilide (Calbiochem, San Diego, Calif.). Absorbance at 410 nm is monitored for 2 hr in a 96-well plate reader. To measure the relative amounts of elastase excytosed, all absorbance values are normalized to the values without any inhibitor.
Using the methods described in Example 2, compounds of the invention were tested for inhibitory activity and potency in an assay of neutrophil (PMN) elastase release. In Table 1, the values shown are effective concentrations of the compound (EC50; μM).

PI3Kγ = PI3Kγ (Homo sapiens (Human), UniProt P48736); assay: Biochemical assay of PI3K selectivity (PI3Kγ); settings: ratio of IC50 for PI3Kγ relative to PI3Kδ
Chain of PI3Kγ (P48736 whole entry): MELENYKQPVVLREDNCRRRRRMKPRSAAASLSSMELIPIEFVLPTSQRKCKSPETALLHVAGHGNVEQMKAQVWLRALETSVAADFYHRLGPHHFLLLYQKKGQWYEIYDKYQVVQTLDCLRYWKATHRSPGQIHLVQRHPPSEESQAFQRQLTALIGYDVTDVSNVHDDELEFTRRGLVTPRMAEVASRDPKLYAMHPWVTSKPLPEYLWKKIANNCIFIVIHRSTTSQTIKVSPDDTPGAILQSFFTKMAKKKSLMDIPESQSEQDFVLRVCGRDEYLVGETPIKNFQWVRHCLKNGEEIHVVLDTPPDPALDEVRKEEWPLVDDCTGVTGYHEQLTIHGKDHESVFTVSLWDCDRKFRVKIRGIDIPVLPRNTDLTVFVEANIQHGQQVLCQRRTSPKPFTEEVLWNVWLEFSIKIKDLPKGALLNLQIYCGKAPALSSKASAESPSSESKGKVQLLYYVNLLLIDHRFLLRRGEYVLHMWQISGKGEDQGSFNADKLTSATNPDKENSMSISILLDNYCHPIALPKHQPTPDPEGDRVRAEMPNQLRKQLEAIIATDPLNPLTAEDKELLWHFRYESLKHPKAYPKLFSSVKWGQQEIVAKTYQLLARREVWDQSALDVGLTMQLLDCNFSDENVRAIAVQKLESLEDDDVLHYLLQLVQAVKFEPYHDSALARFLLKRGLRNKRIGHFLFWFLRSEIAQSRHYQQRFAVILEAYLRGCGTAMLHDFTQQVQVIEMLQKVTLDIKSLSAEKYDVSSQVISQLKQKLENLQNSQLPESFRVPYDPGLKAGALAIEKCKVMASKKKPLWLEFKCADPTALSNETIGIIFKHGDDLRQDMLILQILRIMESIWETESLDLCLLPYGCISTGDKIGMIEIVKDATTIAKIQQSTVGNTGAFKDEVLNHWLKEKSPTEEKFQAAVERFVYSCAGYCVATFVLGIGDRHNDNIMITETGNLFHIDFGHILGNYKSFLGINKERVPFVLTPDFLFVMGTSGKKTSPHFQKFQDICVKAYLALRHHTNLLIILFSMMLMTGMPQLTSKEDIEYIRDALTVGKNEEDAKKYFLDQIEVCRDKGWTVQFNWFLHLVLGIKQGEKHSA
From the text: p110γ: The p110γ cDNA (see Stoyanov et al., Science, 269:690-93 (1995)) was amplified from a human Marathon Ready spleen cDNA library (Clontech) according to the manufacturer's protocol using the following primers: […]
Recombinant baculoviruses containing the above clones were generated using manufacturer's recommended protocol (Life Technologies). Baculoviruses expressing His-tagged p110α, p110β, or p110δ catalytic subunit and p85 subunit were coinfected into Sf21 insect cells. To enrich the heterodimeric enzyme complex, an excess amount of baculovirus expressing p85 subunit was infected, and the His-tagged p110 catalytic subunit complexed with p85 was purified on nickel affinity column. […] In an alternate approach, p101 can be cloned into baculovirus, to permit coexpression with its preferred binding partner p110γ.
as §2, §3, §4, §5, §6

PI3Kδ = PI3Kδ (Homo sapiens (Human), UniProt O00329); assay: Biochemical assay of PI3K potency using 20 μM ATP (PI3Kδ); settings: read-out: Delta IC50
Chain of PI3Kδ (O00329 whole entry S253N): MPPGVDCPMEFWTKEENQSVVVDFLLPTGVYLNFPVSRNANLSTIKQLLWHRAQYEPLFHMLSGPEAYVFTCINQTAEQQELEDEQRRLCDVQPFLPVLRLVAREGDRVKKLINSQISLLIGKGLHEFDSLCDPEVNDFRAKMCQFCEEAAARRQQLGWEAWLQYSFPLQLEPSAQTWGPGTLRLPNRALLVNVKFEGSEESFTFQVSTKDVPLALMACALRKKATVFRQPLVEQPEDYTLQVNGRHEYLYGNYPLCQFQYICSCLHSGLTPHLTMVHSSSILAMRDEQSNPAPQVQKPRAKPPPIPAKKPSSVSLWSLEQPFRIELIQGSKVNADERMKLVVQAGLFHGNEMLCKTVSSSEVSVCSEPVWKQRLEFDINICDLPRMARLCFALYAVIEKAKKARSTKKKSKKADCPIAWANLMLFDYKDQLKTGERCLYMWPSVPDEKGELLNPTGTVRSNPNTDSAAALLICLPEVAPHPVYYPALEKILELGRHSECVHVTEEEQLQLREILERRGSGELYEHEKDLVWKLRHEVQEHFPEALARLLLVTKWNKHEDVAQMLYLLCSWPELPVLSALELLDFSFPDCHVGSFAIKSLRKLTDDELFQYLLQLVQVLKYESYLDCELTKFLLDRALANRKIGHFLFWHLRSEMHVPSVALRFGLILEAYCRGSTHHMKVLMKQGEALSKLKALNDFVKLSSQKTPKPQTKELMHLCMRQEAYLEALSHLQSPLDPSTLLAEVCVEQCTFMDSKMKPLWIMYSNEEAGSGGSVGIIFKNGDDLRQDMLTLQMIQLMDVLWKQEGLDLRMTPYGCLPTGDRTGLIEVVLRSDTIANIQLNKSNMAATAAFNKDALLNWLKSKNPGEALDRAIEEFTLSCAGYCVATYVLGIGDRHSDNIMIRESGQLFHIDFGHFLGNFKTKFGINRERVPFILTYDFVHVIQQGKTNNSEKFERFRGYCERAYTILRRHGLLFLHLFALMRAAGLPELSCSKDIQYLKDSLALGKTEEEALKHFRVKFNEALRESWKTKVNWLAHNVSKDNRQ
Chain of PI3Kδ (P27986 whole entry partner): as the sequence (P27986 whole entry partner) above
From the text: as §1
p110δ: A FLAG®-tagged version of human p110δ (SEQ ID NOS: 1 and 2) (see Chantry et al., J. Biol. Chem., 272:19236-41 (1997)) was subcloned using standard recombinant DNA techniques into the BamH1-Xba1 site of the insect cell expression vector pFastbac HTb (Life Technologies, Gaithersburg, Md.), such that the clone was in frame with the His tag of the vector. The FLAG® system is described in U.S. Pat. Nos. 4,703,004; 4,782,137; 4,851,341; and 5,011,912, and reagents are available from Eastman Kodak Co.
as §2
Using the method described in Example 2, compounds of the invention were tested for inhibitory activity and potency against PI3Kδ, and for selectivity for PI3Kδ versus other Class I PI3K isozymes.
as §4, §5, §6

basophils = assay: Basophil histamine release assay; type: cell-based; settings: highest concentration, 10,000 nM
Method: Assessment of the effect of a compound of the invention on basophil function is tested using a conventional histamine release assay, generally in accordance with the method described in Miura et al., J. Immunol., 162:4198-206 (1999). Briefly, enriched basophils are preincubated with test compounds at several concentrations from 0.1 nM to 1,000 nM for 10 min at 37° C. Then, polyclonal goat antihuman IgE (0.1 μg/mL) or fMLP is added, and allowed to incubate for an additional 30 min. Histamine released into the supernatant is measured using an automated fluorometric technique.

Chain of PI3Kα (P42336 whole entry): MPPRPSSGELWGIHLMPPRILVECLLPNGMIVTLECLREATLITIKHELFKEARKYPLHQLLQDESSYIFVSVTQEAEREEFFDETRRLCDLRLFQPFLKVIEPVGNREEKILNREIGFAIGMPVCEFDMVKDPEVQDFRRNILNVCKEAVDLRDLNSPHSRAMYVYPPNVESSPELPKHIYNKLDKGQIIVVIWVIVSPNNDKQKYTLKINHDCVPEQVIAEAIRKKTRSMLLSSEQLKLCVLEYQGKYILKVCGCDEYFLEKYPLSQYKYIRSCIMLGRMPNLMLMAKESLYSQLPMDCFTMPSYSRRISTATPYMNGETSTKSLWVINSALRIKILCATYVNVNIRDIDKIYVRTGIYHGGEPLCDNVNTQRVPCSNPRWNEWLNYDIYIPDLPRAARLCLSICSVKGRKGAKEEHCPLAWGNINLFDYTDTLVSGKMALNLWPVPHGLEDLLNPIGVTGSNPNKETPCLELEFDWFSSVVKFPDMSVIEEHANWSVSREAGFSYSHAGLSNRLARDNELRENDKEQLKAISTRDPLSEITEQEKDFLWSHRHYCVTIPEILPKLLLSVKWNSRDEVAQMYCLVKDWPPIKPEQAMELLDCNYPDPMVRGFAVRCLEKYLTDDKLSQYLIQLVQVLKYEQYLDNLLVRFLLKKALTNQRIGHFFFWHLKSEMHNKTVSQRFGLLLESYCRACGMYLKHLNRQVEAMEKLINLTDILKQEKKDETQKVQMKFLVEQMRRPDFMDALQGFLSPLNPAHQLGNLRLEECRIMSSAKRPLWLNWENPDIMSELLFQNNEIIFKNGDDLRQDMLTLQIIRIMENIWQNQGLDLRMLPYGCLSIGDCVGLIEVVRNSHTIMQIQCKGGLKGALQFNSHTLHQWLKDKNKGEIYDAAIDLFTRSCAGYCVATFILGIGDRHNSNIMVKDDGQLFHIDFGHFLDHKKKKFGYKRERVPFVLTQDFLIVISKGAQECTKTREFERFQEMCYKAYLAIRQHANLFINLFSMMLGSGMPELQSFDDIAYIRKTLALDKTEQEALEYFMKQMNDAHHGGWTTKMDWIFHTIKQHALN
Chain of PI3Kα (P27986 whole entry partner): as the sequence (P27986 whole entry partner) above

Alpha-Delta Ratio (PI3Kα)	Beta-Delta Ratio (PI3Kβ)	EC50 (Human B Lymphocyte) [µM]	EC50 (human neutrophils (PMN)) [µM]	Gamma-Delta Ratio (PI3Kγ)	IC50 (PI3Kδ) [µM]	Structure (SMILES)	inhibition at 10 µM (basophils) [%]
608	74	0.0046	0.084	66	0.016	CCC(Nc1ncnc2[nH]cnc12)c1nc2ccccc2c(=O)n1-c1ccccc1 (stereo not drawn) [Compound 98, 3-phenyl-2-[1-(9H-purin-6-ylamino)-propyl]-3H-quinazolin-4-one]	
						O=c1cc(N2CCOCC2)oc2c(-c3ccccc3)cccc12 [LY294002]	~100
250	72	0.0307	0.298	38	0.045	CCC(Nc1ncnc2[nH]cnc12)c1nc2cccc(Cl)c2c(=O)n1-c1c(F)cccc1F (stereo not drawn) [Compound 174, 5-chloro-3-(2,6-difluoro-phenyl)-2-[1-(9H-purin-6-ylamino)-propyl]-3H-quinazolin-4-one]	
721	94		0.584	62	0.026	CCC(Nc1ncnc2[nH]cnc12)c1nc2cccc(C)c2c(=O)n1-c1cc(F)cc(F)c1 (stereo not drawn) [Compound 93, 3-(3,5-difluoro-phenyl)-5-methyl-2-[1-(9H-purin-6-ylamino)-propyl]-3H-quinazolin-4-one]	

Structure (SMILES)	Alpha-Delta Ratio (PI3Kα)	Beta-Delta Ratio (PI3Kβ)	EC50 (Human B Lymphocyte) [µM]	EC50 (human neutrophils (PMN)) [µM]	Gamma-Delta Ratio (PI3Kγ)	IC50 (PI3Kδ) [µM]	inhibition at 10 µM (basophils) [%]
CC[C@H](Nc1ncnc2[nH]cnc12)c1nc2cccc(Cl)c2c(=O)n1-c1cc(F)cc(F)c1 [Compound 117, (S)-5-chloro-3-(3,5-difluoro-phenyl)-2-[1-(9H-purin-6-ylamino)-propyl]-3H-quinazolin-4-one]	662	78	0.0016	0.382	67	0.012	

Reference: patent US8586597B2, “6-fluoro-3-phenyl-2-[1-(9H-purin-6-ylamino)ethyl]-3H-quinazolin-4-one as an inhibitor of human phosphatidylinositol 3-kinase delta” (ICOS Corporation, priority 2004, dated 2013)
